The values below come from patent US12569577B2, “PSMA-targeting imaging agents” (The Cleveland Clinic Foundation, priority 2019, dated 2026).

For orientation: EC50 means the concentration at which the effect is half-maximal. A higher EC50 goes with a less potent agent. A word on the Ki: it is a measure of affinity in units of concentration, obtained from inhibition or displacement.

Where two headings read alike, the source gives them in different places. *1 amine or outer side, *2 acyl side, *3 side chain or, on linkers, in order; H or OH if unused. Where a SMILES comes first, the peptide text is derived from it. The star is where a group is joined. DOTA = O=C(O)CN1CCN(CC(=O)O)CCN(CC(=O)*)CCN(CC(=O)O)CC1; γGlu = O=C(O)[CH](CCC(=O)[*:2])N[*:1]; CO = O=C([*:1])[*:2]; Ahx = NCCCCCC(=O)O

Data set [1] has as its system prostate cancer lesions. Conditions: cited from earlier work.
For data set [2] the following is noted: 68Ga-labelled; Rousseau et al.; cited from earlier work.
The target in data set [3] is T1, PSMA (Homo sapiens, UniProt Q04609).
T1 construct: expressed in transfected cells; host or cells: PC3-PIP cells (washed membrane preparation after freeze/thaw)
T1 sequence (Q04609 whole entry): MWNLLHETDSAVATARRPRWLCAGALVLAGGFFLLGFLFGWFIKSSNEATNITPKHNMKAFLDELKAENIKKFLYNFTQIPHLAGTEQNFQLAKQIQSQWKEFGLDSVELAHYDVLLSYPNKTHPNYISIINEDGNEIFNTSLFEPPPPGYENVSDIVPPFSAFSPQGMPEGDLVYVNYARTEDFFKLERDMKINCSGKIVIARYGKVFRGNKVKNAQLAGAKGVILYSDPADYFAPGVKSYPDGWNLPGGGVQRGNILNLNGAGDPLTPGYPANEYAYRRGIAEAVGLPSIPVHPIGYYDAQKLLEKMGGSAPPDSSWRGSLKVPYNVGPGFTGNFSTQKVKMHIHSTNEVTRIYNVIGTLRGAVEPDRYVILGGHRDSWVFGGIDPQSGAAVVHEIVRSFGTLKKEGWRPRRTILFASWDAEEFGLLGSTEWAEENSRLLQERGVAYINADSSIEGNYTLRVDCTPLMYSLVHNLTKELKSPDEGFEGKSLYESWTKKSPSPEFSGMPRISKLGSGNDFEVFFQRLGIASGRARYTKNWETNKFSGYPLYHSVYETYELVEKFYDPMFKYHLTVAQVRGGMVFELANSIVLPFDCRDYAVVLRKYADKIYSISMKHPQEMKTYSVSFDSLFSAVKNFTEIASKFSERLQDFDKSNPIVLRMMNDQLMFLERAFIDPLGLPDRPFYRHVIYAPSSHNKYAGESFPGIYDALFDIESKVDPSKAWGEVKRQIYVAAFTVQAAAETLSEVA
Put plainly: Competitive binding assay: NAAG hydrolysis by PC3-PIP membranes, Amplex Red glutamic acid readout. In kind it is biochemical. Conditions: for EC50: PC3-PIP membranes. The protocol:
PC3-PIP PSMA-expressing cells were grown to confluency, harvested in 50 mM Tris-HCl (pH 7.5) and subjected to four freeze/thaw cycles. Cell membranes were washed three times by centrifugation at 12,000g or higher. The cell membranes were diluted to 50 mg/mL in 50 mM Tris-HCl (pH 7.5) (based on wet weight of the solid after centrifugation). Binding assays were conducted in 96 well plates. Phase 1 of the assay used wells containing 100 microliters 50 mM Tris-HCl (pH 7.5) with 4 microns NAAG and 10 microns of PC3-PIP membrane, to which differing concentrations of Compound 1 was added. The 96 well plate was incubated at 37° C. for 2 h. The glutamic acid concentration was measured with the Amplex Red glutamic acid assay kit (Invitrogen-Molecular Probes) using a fluorescent plate reader (530 nm excitation, 590 nm emission). The resulting fluorescence signals were normalized, and normalized fluorescence plotted against the concentration of ligand (log (nm)) (FIG. 1). EC50 was determined according to Eq. 1 (below). [formula]

For the compound `O=C(O)CCc1ccc(O)c(CN(CCN(CC(=O)O)Cc2cc(CCC(=O)NCCCCCC(=O)NCCCC[C@H](NC(=O)N[C@@H](CCC(=O)O)C(=O)O)C(=O)O)ccc2O)CC(=O)O)c1` [PSMA 11, Glu-NH—CO—NH-Lys (Ahx)-[^68Ga(HBEDCC], metal not drawn], in data set [1] (PSA <2.2 ng/ml), the “(per patient) lesion detection rate” value is 60%. For the same compound, the “(per patient) lesion detection rate” value in data set [1] (PSA >2.2 ng/ml) is 100%. For the same compound, in data set [2], the “Biodistribution Blood” value was 0.31% ± 0.08%, the “Biodistribution Kidney” value is 182% ± 33%, the “Biodistribution Liver” value is 0.44% ± 0.13% and the “Biodistribution Muscle” value was 0.54% ± 0.14%. In data set [2], the “Biodistribution Salivary Gland” value was 10.00% ± 2.52%, the “Biodistribution Spleen” value is listed as 22.2% ± 7.91% and the “Biodistribution Tumor” value was 8.67% ± 1.97%.

In data set [3] (NAAG substrate, 37° C. 2 h, FIG. 1), `NC(=O)C(CCCCNC(=O)CN1CCN(CC(=O)O)CCN(CC(=O)O)CCN(CC(=O)O)CC1)NC(=O)C(Cc1ccc(O)cc1)NC(=O)C(CCC(=O)O)NC(=O)C(CCC(=O)O)NC(=O)C(CCC(=O)O)NC(=O)CCCCCNC(=O)CCC(NC(=O)NC(CCC(=O)O)C(=O)O)C(=O)O` (stereo not shown) [Compound 1] ({Glu-CO-γGlu-Ahx}-EEEYK(DOTA)-NH2; configuration not given here) registered an EC50 of 0.287 ± 0.064 nM. Moreover, the Ki in data set [3] (calculated from the competitive binding assay, read-out: estimated Ki to PSMA) was less than 0.3 nM.

In data set [3] (FIG. 2 and FIG. 3), `O=C(O)CCC(NC(=O)NC(CCCCNC(=O)CCC(NC(=O)CCC(NC(=O)c1ccc(F)nc1)C(=O)O)C(=O)O)C(=O)O)C(=O)O` (stereo not shown) [Compound 11] had an EC50 of roughly 0.1 nM.

With `O=C(O)CCC(NC(=O)NC(CCCCNC(=O)CCC(NC(=O)CCC(NC(=O)C(Cc1ccc(O)cc1)NC(=O)CN1CCN(CC(=O)O)CCN(CC(=O)O)CCN(CC(=O)O)CC1)C(=O)O)C(=O)O)C(=O)O)C(=O)O` (stereo not shown) [Compound 14, E′K-E!E!Y-DOTA], in data set [3] (FIG. 2 and FIG. 3), the EC50 was 0.39 ± 0.02 nM.
